From article PMC6403188, “Species-Specific Structural Requirements of Alpha-Branched Trehalose Diester Mincle Agonists” (Frontiers in Immunology, 2019) come the findings set out here.

Assay [1] has as its target T1, mouse Mincle (Mus musculus, UniProt Q9R0Q8).
T1 construct: host or cells: HEK (HEK-Blue) cells with NF-κB-driven SEAP reporter
T1 sequence (Q9R0Q8 1-214): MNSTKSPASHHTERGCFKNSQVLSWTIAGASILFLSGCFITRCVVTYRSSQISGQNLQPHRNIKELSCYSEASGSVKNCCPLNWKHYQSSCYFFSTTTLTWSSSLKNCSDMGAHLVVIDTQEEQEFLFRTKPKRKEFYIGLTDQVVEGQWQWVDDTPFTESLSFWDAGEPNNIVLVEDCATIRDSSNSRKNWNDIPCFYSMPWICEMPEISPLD
Kind of assay: HEK cells expressing mouse Mincle with NF-κB-driven SEAP reporter. The format is cell-based. As to the method:
(§1) Human and mouse Mincle expressing HEK cells were obtained from Invivogen (San Diego, CA). Cells were cultured according to the manufactures instructions in DMEM with 10% FBS, 50 U/ml penicillin, […] streptomycin, […] Normocin, 2 mM L-glutamine, 30 μg/ml blasticidin, 1 μg/ml puromycin and 1x HEK-Blue™ CLR Selection. For assay, indicated compounds were serially diluted in diluent (50%IPA/50% isooctane), 20 μl of a 10x final concentration were applied to the bottom of a 96-well tissue culture plate and the solvent was evaporated for >1 h in a biosafety hood. HEK cells were applied to the plates at a density of 3 × 10^5 cells/well and incubated for 18–24 h at 37°C. Cell supernatants were harvested and analyzed via the manufacturer's instructions using Hek-Blue^TM Detection. SEAP activity was assessed by reading the optical density (OD) at 620–655 nm with a microplate reader; data are expressed as the fold change in OD over vehicle treated cells.
(§2) To investigate the capacity of these molecules to bind to and activate the Mincle receptor, we used human embryonic kidney (HEK) cells expressing the human or mouse Mincle receptor along with an NF-κB-driven secreted embryonic alkaline phosphatase (SEAP) reporter. Many of the αTDE compounds were able to induce production of SEAP in a dose dependent manner (Figure 2). HEK null cells (HEK cells containing the NF-kB reporter without Mincle receptor) were used as a negative controls to confirm the receptor specificity of the compounds in HEK cells expressing human or mouse Mincle reporter (Supplemental Figure 4). […] The relative activity of TDM and TDB in the human and mouse HEK cells is consistent with the results reported by others ([20]). […] This synthetic version is a shorter chain version of the lipid-derived one reported to be “human-specific” ([28]).
(§3) Figure 2 Activation of human or mouse Mincle in response to synthetic αTDE compounds. The indicated compounds were dissolved in 50% isopropanol/isooctane, serially diluted in vehicle and then dried to the bottom of a tissue culture plate. HEK cells transfected with human (A–C) or mouse (D–F) Mincle and an NF-κB-driven SEAP reporter were incubated with the compounds for 24 h followed by assessment of the supernatants for SEAP levels. Data are represented as fold change in OD650 over vehicle treated cells. Graphs are mean values from three independent experiments ± SEM. Table in (G) represents the average calculated EC50 and average max SEAP value (± SD, n = 3) for each compound in each cell line. […]

The target of assay [2] is T2, human Mincle (Homo sapiens, UniProt Q9ULY5).
T2 construct: host or cells: HEK (HEK-Blue) cells with NF-κB-driven SEAP reporter
T2 sequence (Q9ULY5 1-219): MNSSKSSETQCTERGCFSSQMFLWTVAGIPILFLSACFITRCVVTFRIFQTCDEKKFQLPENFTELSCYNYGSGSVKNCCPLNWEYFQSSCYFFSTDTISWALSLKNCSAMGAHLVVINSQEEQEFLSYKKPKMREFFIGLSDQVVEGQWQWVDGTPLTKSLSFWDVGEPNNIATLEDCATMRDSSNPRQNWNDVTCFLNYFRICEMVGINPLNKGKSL
The assay is described as follows: HEK cells expressing human Mincle with NF-κB-driven SEAP reporter. The format is cell-based. The following applies: plate-coated compound, 24 h. As to the method: as §1, §2, §3

Each structure is given as a SMILES string.

Turning to `CCCCCCCCCCCCCCCCCCCCCC(=O)OC[C@H]1O[C@H](O[C@H]2O[C@H](COC(=O)CCCCCCCCCCCCCCCCCCCCC)[C@@H](O)[C@H](O)[C@H]2O)[C@H](O)[C@@H](O)[C@@H]1O` [TDB, trehalose dibehenate, reference compound], the “Relative activity in mouse vs. human Mincle HEK cells” value in assay [1] (comparison of mouse and human Mincle receptor transfected HEK cells) was “more potent in the mouse vs. the human”. Further, the “SEAP induction / activation of mouse Mincle-expressing HEK cells (in words)” value in assay [1] (plate-coated compound, 24 h) was “robust ability to activate”. In addition, in assay [2], the “SEAP induction / activation of human Mincle-expressing HEK cells (in words)” value was “robust ability to activate”.
